Measurements as given in patent publication US9512169B2, “3-substituted estra-1,3,5(10),16-tetraene derivatives, methods for the production thereof, pharmaceutical preparations containing same, and use thereof for the production of medicaments” (BAYER PHARMA AKTIENGESELLSCHAFT, priority 2012, dated 2016).
“And” between values parts separate entries of the source, which are not always exact repeats. Equal values may be shown once.

target: T1, AKR1C3 (Homo sapiens (Human), UniProt P42330); test: AKR1C3 enzyme inhibition assay (Coumberone to Coumberol fluorescence); format: biochemical; conditions: recombinant human AKR1C3, 15 min pre-incubation, 90 min at 22° C.; repeated lines = two experimental determinations
Method: The AKR1C3-inhibitory activity of the substances of the present invention was measured in the AKR1C3 assay described in the paragraphs below.
Essentially, the enzyme activity is measured by quantification of the Coumberol from Coumberone (Halim, M., Yee, D. J., and Sames, D., J. AM. CHEM. SOC. 130, 14123-14128 (2008) and Yee, D. J., Balsanek, V., Bauman, D. R., Penning, T. M., and Sames, D., Proc. Natl. Acad. Sci. USA 103, 13304-13309 (2006)). In this test, the increase of the highly fluorescent Coumberol by NADPH- (nicotinamide adenine dinucleotide phosphate)-dependent reduction of the non-fluorescent Coumberone by AKR1C3 can be determined.
The enzyme used was recombinant human AKR1C3 (Aldo-keto reductase family 1 member C3) (GenBank Accession No. NM_003739). This was expressed in E. coli as GST (glutathione S transferase) fusion protein and purified by glutathione Sepharose affinity chromatography. The GST was removed by digestion with thrombin and subsequent size exclusion chromatography (Dufort, I., Rheault, P., Huang, X F., Soucy, P., and Luu-The, V., Endocrinology 140, 568-574 (1999)).
For the assay, 50 nl of a 100-fold concentrated solution of the test substance in DMSO were pipetted into a black low-volume 384-well microtiter plate (Greiner Bio-One, Frickenhausen, Germany), 2.0 μl of a solution of AKR1C3 in assay buffer [50 mM potassium phosphate buffer pH 7, 1 mM DTT, 0.0022% (w/v) Pluronic F-127, 0.01% BSA (w/v) and protease inhibitor cocktail (Complete, EDTA-free Protease Inhibitor Cocktail from Roche)] were added and the mixture was incubated for 15 min to allow pre-binding of the substances to the enzyme prior to the enzyme reaction. The enzyme reaction was then started by addition of 3 μl of a solution of NADPH (16.7 μM→final concentration in 5 μl of assay volume is 10 μM) and Coumberone (0.5 μM→final concentration in 5 μl of assay volume is 0.3 μM) in assay buffer, and the resulting mixture was incubated at 22° C. for the reaction time of 90 min. The concentration of the AKR1C3 was adapted to the respective activity of the enzyme preparation and adjusted such that the assay was carried out in the linear range. Typical concentrations were in the region of 1 nM. The reaction was stopped by addition of 5 μl of a stop solution consisting of the inhibitor EM-1404 [F. Labrie et al. U.S. Pat. No. 6,541,463, 2003] (2 μM→final concentration in […] is 1 μM). The fluorescence of the Coumberole was then measured at 520 nm (excitation at 380 nm) using a suitable measuring instrument (Pherastar from BMG Labtechnologies). The intensity of the fluorescence was used as a measure of the amount of Coumberole formed and thus of the enzyme activity of AKR1C3. The data were normalized (enzyme reaction without inhibitor=0% inhibition; all other assay components, but no enzyme=100% inhibition).
As described, the pharmacological substances claimed were examined for their inhibitory activity on the AKR1C3 enzyme (see Table 1). The compounds claimed show a strong inhibition of AKR1C3 in vitro (IC50 values <200 nM) and in most cases even IC50 values <50 nM.

T1 sequence (P42330 whole entry): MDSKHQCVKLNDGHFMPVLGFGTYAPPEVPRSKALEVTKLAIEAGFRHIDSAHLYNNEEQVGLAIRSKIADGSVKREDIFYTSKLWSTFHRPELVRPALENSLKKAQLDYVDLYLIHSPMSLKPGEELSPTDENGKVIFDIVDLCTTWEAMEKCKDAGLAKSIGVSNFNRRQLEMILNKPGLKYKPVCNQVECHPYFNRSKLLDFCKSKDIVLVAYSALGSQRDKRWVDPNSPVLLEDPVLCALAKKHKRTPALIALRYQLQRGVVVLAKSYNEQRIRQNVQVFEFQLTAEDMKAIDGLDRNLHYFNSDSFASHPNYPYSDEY

Row | Structure (SMILES) | IC50
1 | CC(Oc1ccc2c(c1)CC[C@@H]1[C@@H]2CC[C@]2(C)C(c3cncc(F)c3)=CC[C@@H]12)C(=O)O (mixture of isomers) [Example 10, (RS)-2-{[17-(5-Fluoropyridin-3-yl)estra-1,3,5(10),16-tetraen-3-yl]oxy}propanoic acid] | 2.7 nM
2 | CCC(Oc1ccc2c(c1)CC[C@@H]1[C@@H]2CC[C@]2(C)C(c3cncc(F)c3)=CC[C@@H]12)C(=O)O (mixture of isomers) [Example 11, (RS)-2-{[17-(5-Fluoropyridin-3-yl)estra-1,3,5(10),16-tetraen-3-yl]oxy}butanoic acid] | 2.5 nM
3 | COCC(Oc1ccc2c(c1)CC[C@@H]1[C@@H]2CC[C@]2(C)C(c3cncc(F)c3)=CC[C@@H]12)C(=O)O (mixture of isomers) [Example 12, (RS)-2-{[17-(5-Fluoropyridin-3-yl)estra-1,3,5(10),16-tetraen-3-yl]oxy}-3-methoxy-propanoic acid] | 4 nM
4 | CC(Oc1ccc2c(c1)CC[C@@H]1[C@@H]2CC[C@]2(C)C(c3cccnc3)=CC[C@@H]12)C(=O)O (mixture of isomers) [Example 13, (RS)-2-{[17-(3-Pyridyl)estra-1,3,5(10),16-tetraen-3-yl]oxy}propanoic acid] | 2.8 nM
5 | CC(Oc1ccc2c(c1)CC[C@@H]1[C@@H]2CC[C@]2(C)C(c3cncc(F)c3)=CC[C@@H]12)C(N)=O (mixture of isomers) [Example 14, (RS)-2-{[17-(5-Fluoropyridin-3-yl)estra-1,3,5(10),16-tetraen-3-yl]oxy}propanamide] | 20 nM
6 | C[C@]12CC[C@@H]3c4ccc(OCC(O)CO)cc4CC[C@H]3[C@@H]1CC=C2c1cncc(F)c1 (mixture of isomers) [Example 17, (RS)-3-{[17-(5-Fluoropyridin-3-yl)estra-1,3,5(10),16-tetraen-3-yl]oxy}propan-1,2-diol] | 25 nM
7 | C[C@]12CC[C@@H]3c4ccc(OC(C(=O)O)c5ccccc5)cc4CC[C@H]3[C@@H]1CC=C2c1cncc(F)c1 (mixture of isomers) [Example 18, (RS)-{[17-(5-Fluoropyridin-3-yl)estra-1,3,5(10),16-tetraen-3-yl]oxy}(phenyl)acetic acid] | 10 nM
8 | C[C@]12CC[C@@H]3c4ccc(OCC(=O)O)cc4CC[C@H]3[C@@H]1CC=C2c1cncc(C(F)(F)F)c1 [Example 2, ({17-[5-(Trifluoromethyl)pyridin-3-yl]estra-1,3,5(10),16-tetraen-3-yl}oxy)acetic acid] | 33 nM and 23 nM
9 | C[C@]12CC[C@@H]3c4ccc(OCC(=O)O)cc4CC[C@H]3[C@@H]1CC=C2c1cncc(F)c1 [Example 3, {[17-(5-Fluoropyridin-3-yl)estra-1,3,5(10),16-tetraen-3-yl]oxy}acetic acid] | 16 nM and 8.6 nM
10 | Cc1ccc(C2=CC[C@H]3[C@@H]4CCc5cc(OCC(=O)O)ccc5[C@H]4CC[C@]23C)cn1 [Example 4, {[17-(6-Methylpyridin-3-yl)estra-1,3,5(10),16-tetraen-3-yl]oxy}acetic acid] | 136 nM
11 | C[C@]12CC[C@@H]3c4ccc(OCC(=O)O)cc4CC[C@H]3[C@@H]1CC=C2c1cncnc1 [Example 5, {[17-(Pyrimidin-5-yl)estra-1,3,5(10),16-tetraen-3-yl]oxy}acetic acid] | 89 nM
12 | C[C@]12CC[C@@H]3c4ccc(OCC(=O)O)cc4CC[C@H]3[C@@H]1CC=C2c1cncc(C(=O)O)c1 [Example 6, 5-[3-(Carboxymethoxy)estra-1,3,5(10),16-tetraen-17-yl]nicotinic acid] | 9.2 nM
13 | Cc1cc(C2=CC[C@H]3[C@@H]4CCc5cc(OCC(=O)O)ccc5[C@H]4CC[C@]23C)cnn1 [Example 7, {[17-(6-Methylpyridazin-4-yl)estra-1,3,5(10),16-tetraen-3-yl]oxy}acetic acid] | 1.4 nM
14 | CC(C)(COc1ccc2c(c1)CC[C@@H]1[C@@H]2CC[C@]2(C)C(c3cncc(F)c3)=CC[C@@H]12)C(=O)O [Example 8, 3-{[17-(5-Fluoropyridin-3-yl)estra-1,3,5(10),16-tetraen-3-yl]oxy}-2,2-dimethylpropanoic acid] | 12 nM and 11 nM
15 | C[C@]12CC[C@@H]3c4ccc(OCCCC(=O)O)cc4CC[C@H]3[C@@H]1CC=C2c1cncc(F)c1 [Example 9, 4-{[17-(5-Fluoropyridin-3-yl)estra-1,3,5(10),16-tetraen-3-yl]oxy}butanoic acid] | 42 nM
16 | C[C@]12CC[C@@H]3c4ccc(OCCCO)cc4CC[C@H]3[C@@H]1CC=C2c1cncc(F)c1 [Example 15, 3-{[17-(5-Fluoropyridin-3-yl)estra-1,3,5(10),16-tetraen-3-yl]oxy}propan-1-ol] | 54 nM
17 | CC(C)(CO)COc1ccc2c(c1)CC[C@@H]1[C@@H]2CC[C@]2(C)C(c3cncc(F)c3)=CC[C@@H]12 [Example 16, 3-{[17-(5-Fluoropyridin-3-yl)estra-1,3,5(10),16-tetraen-3-yl]oxy}-2,2-dimethylpropan-1-ol] | 124 nM
18 | CCNC(=O)COc1ccc2c(c1)CC[C@@H]1[C@@H]2CC[C@]2(C)C(c3cncc(C(F)(F)F)c3)=CC[C@@H]12 [Example 19, N-Ethyl-2-({17-[5-(trifluoromethyl)pyridin-3-yl]estra-1,3,5(10),16-tetraen-3-yl}oxy)acetamide] | 53 nM

target: T1, AKR1C3; test: AKR1C3 inhibition in a cell-based system (HEK293 cells transfected with AKR1C3 expression plasmid, coumberol fluorescence); conditions: HEK293 cells transfected with AKR1C3, incubation overnight; repeated lines = independent determinations; read-out: Cellular AKR1C3 inhibition IC50
Method: The inhibition of AKR1C3 by the substances described in the present invention was measured in a cell-based assay using […] as substrate for the AKR1C3 (Halim, M., Yee, D. J., and Sames, D., J. AM. CHEM. SOC. 130, 14123-14128 (2008) and Yee, D. J., Balsanek, V., Bauman, D. R., Penning, T. M., and Sames, D., Proc. Natl. Acad. Sci. USA 103, 13304-13309 (2006)) (cf. Example 20).
The cell system used were HEK293 cells (ATCC, USA) (cell culture medium: DMEM, 1.5 g glucose, 10% FCS, PSG). The cells were transfected in an AKR1C3 expression plasmid (pCMV6-AC-AKR1C3, GenBank Accession No. NM_003739.4) overnight (X-tremeGENE HP, Roche). The next morning, the cells were sown in black 96well cell culture plates at a cell density of 40000 cells/well (Greiner Bio-One, Frickenhausen, Germany). After 7 h, the cells were incubated with the test substances (dissolved in 100× concentration in DMSO, final concentration between 10^−11M and 10^−5M) and […] (dissolved in cell culture medium, final concentration 5×10^−6M) overnight. The next morning, the fluorescence of coumberol was measured at 535 nm (excitation at 355 nm) using a suitable measuring instrument (Mithras, from Berthold). The fluorescence intensity was used as a measure of the amount of coumberol formed and thus of the enzyme activity of AKR1C3. The data were normalized (transfected cells without inhibitor, only DMSO=0% inhibition; transfected cells, 10 μM inhibitor EM-1404 [F. Labrie et al. U.S. Pat. No. 6,541,463, 2003]=100% inhibition), and the IC50 values were calculated using a 4-parameter fit.
In the cell-based assay described above, the pharmacological substances claimed were examined for their inhibitory activity on the AKR1C3 enzyme (see Table 2).

Row | Structure (SMILES) | IC50
19 | C[C@]12CC[C@@H]3c4ccc(OCC(=O)O)cc4CC[C@H]3[C@@H]1CC=C2c1cncc(C(F)(F)F)c1 [Example 2, ({17-[5-(Trifluoromethyl)pyridin-3-yl]estra-1,3,5(10),16-tetraen-3-yl}oxy)acetic acid] | 48 nM and 68 nM
20 | C[C@]12CC[C@@H]3c4ccc(OCC(=O)O)cc4CC[C@H]3[C@@H]1CC=C2c1cncc(F)c1 [Example 3, {[17-(5-Fluoropyridin-3-yl)estra-1,3,5(10),16-tetraen-3-yl]oxy}acetic acid] | 49 nM and 56 nM and 31 nM
21 | CC(C)(COc1ccc2c(c1)CC[C@@H]1[C@@H]2CC[C@]2(C)C(c3cncc(F)c3)=CC[C@@H]12)C(=O)O [Example 8, 3-{[17-(5-Fluoropyridin-3-yl)estra-1,3,5(10),16-tetraen-3-yl]oxy}-2,2-dimethylpropanoic acid] | 170 nM and 220 nM
